Results from PubChem BioAssay (NCI).
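Briefly, cells in 96-well plates were exposed to five compound concentrations for 48 h, and endpoints were estimated by linear interpolation. TGI: concentration producing complete growth inhibition.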

Assays:
Test in all cases: NCI tumour cell line growth inhibition, 48 h
LXFL 529 NSCLC = system: LXFL 529 NSCLC
HOP-62 NSCLC = system: HOP-62 NSCLC
OVCAR-5 ovarian = system: OVCAR-5 ovarian
U251 CNS = system: U251 CNS
MALME-3M melanoma = system: MALME-3M melanoma
SK-OV-3 ovarian = system: SK-OV-3 ovarian
HCC-2998 colon = system: HCC-2998 colon
CCRF-CEM leukemia = system: CCRF-CEM leukemia
SW-620 colon = system: SW-620 colon
EKVX NSCLC = system: EKVX NSCLC
SN12C renal = system: SN12C renal
IGROV1 ovarian = system: IGROV1 ovarian
SF-295 CNS = system: SF-295 CNS
DLD-1 colon = system: DLD-1 colon
LOX IMVI melanoma = system: LOX IMVI melanoma
UACC-62 melanoma = system: UACC-62 melanoma
DMS 114 small cell lung = system: DMS 114 small cell lung
NCI-H460 lung = system: NCI-H460 lung
HT29 colon = system: HT29 colon
TK-10 renal = system: TK-10 renal
HOP-92 NSCLC = system: HOP-92 NSCLC
OVCAR-3 ovarian = system: OVCAR-3 ovarian
K-562 leukemia = system: K-562 leukemia
CAKI-1 renal = system: CAKI-1 renal
SF-539 CNS = system: SF-539 CNS
ACHN renal = system: ACHN renal
HCT-116 colon = system: HCT-116 colon
HCT-15 colon = system: HCT-15 colon
NCI-H226 lung = system: NCI-H226 lung
M19-MEL melanoma = system: M19-MEL melanoma
M14 melanoma = system: M14 melanoma
SK-MEL-5 melanoma = system: SK-MEL-5 melanoma
HL-60(TB) leukemia = system: HL-60(TB) leukemia
OVCAR-8 ovarian = system: OVCAR-8 ovarian
UO-31 renal = system: UO-31 renal
NCI-H522 lung = system: NCI-H522 lung
SF-268 CNS = system: SF-268 CNS
SNB-78 CNS = system: SNB-78 CNS
RXF 393 renal = system: RXF 393 renal
HOP-18 NSCLC = system: HOP-18 NSCLC
UACC-257 melanoma = system: UACC-257 melanoma
DMS 273 small cell lung = system: DMS 273 small cell lung
XF 498 CNS = system: XF 498 CNS
KM20L2 colon = system: KM20L2 colon
RXF-631 renal = system: RXF-631 renal
A549 NSCLC = system: A549 NSCLC
SNB-19 CNS = system: SNB-19 CNS
MOLT-4 leukemia = system: MOLT-4 leukemia
NCI-H23 lung = system: NCI-H23 lung
SK-MEL-2 melanoma = system: SK-MEL-2 melanoma
RPMI-8226 leukemia = system: RPMI-8226 leukemia
SN12K1 renal = system: SN12K1 renal
SK-MEL-28 melanoma = system: SK-MEL-28 melanoma
KM12 colon = system: KM12 colon
SNB-75 CNS = system: SNB-75 CNS
A498 renal = system: A498 renal
COLO 205 colon = system: COLO 205 colon
P388/ADR leukemia = system: P388/ADR leukemia
NCI/ADR-RES ovarian = system: NCI/ADR-RES ovarian
P388 leukemia = system: P388 leukemia
MCF7 breast = system: MCF7 breast
OVCAR-4 ovarian = system: OVCAR-4 ovarian

SMILES: CC(C)(C)C1(c2ccc(C3(c4ccccc4)Oc4ccccc4S3)[nH]2)Oc2ccccc2S1 (stereo not drawn)
- TGI (LXFL 529 NSCLC): > 100 µM
- TGI (HOP-62 NSCLC): > 100 µM
- TGI (OVCAR-5 ovarian): > 100 µM
- TGI (U251 CNS): > 100 µM
- TGI (MALME-3M melanoma): > 100 µM
- TGI (SK-OV-3 ovarian): > 100 µM
- TGI (HCC-2998 colon): > 100 µM
- TGI (CCRF-CEM leukemia): > 100 µM
- TGI (SW-620 colon): > 100 µM
- TGI (EKVX NSCLC): > 100 µM
- TGI (SN12C renal): > 100 µM
- TGI (IGROV1 ovarian): > 100 µM
- TGI (SF-295 CNS): > 100 µM
- TGI (DLD-1 colon): > 100 µM
- TGI (LOX IMVI melanoma): > 100 µM
- TGI (UACC-62 melanoma): > 100 µM
- TGI (DMS 114 small cell lung): > 100 µM
- TGI (NCI-H460 lung): > 100 µM
- TGI (HT29 colon): > 100 µM
- TGI (TK-10 renal): > 100 µM
- TGI (HOP-92 NSCLC): > 100 µM
- TGI (OVCAR-3 ovarian): > 100 µM
- TGI (K-562 leukemia): > 100 µM
- TGI (CAKI-1 renal): > 100 µM
- TGI (SF-539 CNS): > 100 µM
- TGI (ACHN renal): > 100 µM
- TGI (HCT-116 colon): > 100 µM
- TGI (HCT-15 colon): > 100 µM
- TGI (NCI-H226 lung): > 100 µM
- TGI (M19-MEL melanoma): > 100 µM
- TGI (M14 melanoma): > 100 µM
- TGI (SK-MEL-5 melanoma): > 100 µM
- TGI (HL-60(TB) leukemia): > 100 µM
- TGI (OVCAR-8 ovarian): > 100 µM
- TGI (UO-31 renal): > 100 µM
- TGI (NCI-H522 lung): > 100 µM
- TGI (SF-268 CNS): > 100 µM
- TGI (SNB-78 CNS): > 100 µM
- TGI (RXF 393 renal): > 100 µM
- TGI (HOP-18 NSCLC): > 100 µM
- TGI (UACC-257 melanoma): > 100 µM
- TGI (DMS 273 small cell lung): > 100 µM
- TGI (XF 498 CNS): > 100 µM
- TGI (KM20L2 colon): > 100 µM
- TGI (RXF-631 renal): > 100 µM
- TGI (A549 NSCLC): > 100 µM
- TGI (SNB-19 CNS): > 100 µM
- TGI (MOLT-4 leukemia): > 100 µM
- TGI (NCI-H23 lung): > 100 µM
- TGI (SK-MEL-2 melanoma): > 100 µM
- TGI (RPMI-8226 leukemia): > 100 µM

SMILES: CC(C)=CCc1c(O)ccc2c1OC1c3ccc(O)c(CC=C(C)C)c3OCC21 (stereo not drawn)
- TGI (SN12K1 renal): 20.2 µM
- TGI (HOP-62 NSCLC): 23.9 µM
- TGI (OVCAR-5 ovarian): 27.1 µM
- TGI (U251 CNS): 21.3 µM
- TGI (MALME-3M melanoma): 33.6 µM
- TGI (SK-MEL-28 melanoma): 28.7 µM
- TGI (SK-OV-3 ovarian): 35.1 µM
- TGI (HCC-2998 colon): 26 µM
- TGI (CCRF-CEM leukemia): 43 µM
- TGI (SW-620 colon): 22.5 µM
- TGI (EKVX NSCLC): 26.8 µM
- TGI (SN12C renal): 30.3 µM
- TGI (IGROV1 ovarian): 25.8 µM
- TGI (KM12 colon): 33.7 µM
- TGI (SF-295 CNS): 24.3 µM
- TGI (DLD-1 colon): 18.9 µM
- TGI (LOX IMVI melanoma): 22.3 µM
- TGI (UACC-62 melanoma): 18.7 µM
- TGI (DMS 114 small cell lung): 26.3 µM
- TGI (NCI-H460 lung): 16.1 µM
- TGI (HT29 colon): > 61.9 µM
- TGI (HOP-92 NSCLC): > 100 µM
- TGI (SNB-75 CNS): 33.9 µM
- TGI (OVCAR-3 ovarian): 27 µM
- TGI (K-562 leukemia): 25.3 µM
- TGI (A498 renal): 25 µM
- TGI (CAKI-1 renal): 25 µM
- TGI (SF-539 CNS): 23.9 µM
- TGI (HCT-116 colon): 18.3 µM
- TGI (HCT-15 colon): 18.1 µM
- TGI (NCI-H226 lung): 30.7 µM
- TGI (M19-MEL melanoma): 24.2 µM
- TGI (SK-MEL-5 melanoma): 17.8 µM
- TGI (HL-60(TB) leukemia): 31.4 µM
- TGI (OVCAR-8 ovarian): 52.6 µM
- TGI (COLO 205 colon): 33 µM
- TGI (P388/ADR leukemia): 32.2 µM
- TGI (NCI/ADR-RES ovarian): 32.2 µM
- TGI (UO-31 renal): 24 µM
- TGI (NCI-H522 lung): 25.5 µM
- TGI (SF-268 CNS): 27 µM
- TGI (SNB-78 CNS): 33 µM
- TGI (RXF 393 renal): 22.1 µM
- TGI (HOP-18 NSCLC): 33.3 µM
- TGI (UACC-257 melanoma): 29 µM
- TGI (DMS 273 small cell lung): 28.2 µM
- TGI (XF 498 CNS): 32.6 µM
- TGI (KM20L2 colon): 34 µM
- TGI (P388 leukemia): 37.4 µM
- TGI (MCF7 breast): 16.9 µM
- TGI (OVCAR-4 ovarian): 23.6 µM
- TGI (A549 NSCLC): 26.5 µM
- TGI (SNB-19 CNS): 27.6 µM
- TGI (MOLT-4 leukemia): 16 µM
- TGI (NCI-H23 lung): > 55.1 µM
- TGI (SK-MEL-2 melanoma): 34.3 µM
- TGI (RPMI-8226 leukemia): 17.1 µM
